In article PMC4547397, “A Caged Ret Kinase Inhibitor and its Effect on Motoneuron Development in Zebrafish Embryos” (Scientific Reports, 2015):
“Also recorded” adds a separate entry of the source. Read-outs that look alike come from different tables or passages of the source. One block for each compound: values may come before it.

Columns and labels:
[1] = system: zebrafish embryos tg(olig2:dsRed) (ret); experiment: Motoneuron development in zebrafish embryos, confocal imaging at 2 dpf; assay type: in vivo, Danio rerio
Procedure: In the light of this, we chose to investigate the decaging of 6 in the transgenic zebrafish line tg(olig2:dsRed)[33], and any effect this may have on the motoneuron development. The choice of zebrafish line is motivated by the labeling of ventral spinal cord precursor cells that produce motoneurons and oligodendrocytes, facilitating the assessment of altered motoneuron phenotypes. Transgenic zebrafish embryos were incubated in 10 μM and 50 μM solutions of 6 at 3 hours post fertilization (hpf) for 11 h. We opted for decaging at 14 hpf since primary motoneurons start to sprout growth cones at 18 hpf[36]. We hypothesized that blocking ret signalling at this time point would primarily affect axonal extension and not formation of motoneurons. After washing with fresh medium the embryos were irradiated for 15 min (365 nm). The embryos were left to develop until 2 days post fertilization (dpf) when their spinal cords were scanned with confocal imaging. […] All experimental procedures were carried out in compliance with relevant guidelines and regulations of the Swedish National Board for Laboratory Animals. The protocols were also approved by the medical ethics committee of University of Gothenburg. Zebrafish (Danio rerio) embryos of strain tg(olig2:dsRed)[32] were kept at the Institute of Neuroscience and Physiology, University of Gothenburg. Fertilized eggs were collected and kept in petri dishes containing embryo medium (EM; 5.03 mM NaCl, 0.17 mM KCl, 0.33 mM CaCl2·2H2O, 0.33 mM MgCl2·6H2O), in darkness, in an incubator at 28.5 °C. Eggs were incubated in either 6 or 1% DMSO from 3 hours post-fertilization (hpf) and then dechorinated at 9 hpf to allow for better compound uptake. After 11 hours of incubation, 14 hpf embryos were washed three times with EM and moved to clean petri dishes containing 1-phenyl 2-thiourea (PTU, 0,003%, Sigma) and diluted in EM to prevent pigmentation. Embryos were irradiated for 15 min (365 nm) and then kept in the incubator until time of confocal imaging. A second set of animals were incubated in 6 from 14 hpf to 24 hpf, after which animals were washed and illuminated in the same way as the first group. Prior to imaging at 2 days post-fertilization (dpf), the embryos were anesthetized using 0.02% tricaine methanesulfonate (MS-222) diluted in EM and embedded in low-melting agarose. The imaging was performed on a ZEISS LSM710 confocal microscope at the Centre for Cellular Imaging at the Sahlgrenska Academy. Stacks of labeled spinal cord neurons were collected using a 561 nm laser. Maximal intensity pictures of spinal cord hemisegments and axonal phenotypes were analyzed using ImageJ (U. S. National Institutes of Health, Bethesda, Maryland, USA) according to Abramsson et al. 2013[38].

MCF7 cells = system: MCF7 cells; design: method as in PMID 25409876; conditions: cited from earlier work
Human recombinant RET = target: T1, Human recombinant RET (Homo sapiens, UniProt P07949); experiment: In vitro (cell-free) RET kinase incubation, luminescent ADP detection; assay type: biochemical; conditions: for IC50: read-out: IC50, RET-induced ATP turnover; for RET kinase activity: 1.6 μM
T1 construct: purchased Promega; host or cells: Sf9 insect cells
T1 sequence (P07949 29-1114): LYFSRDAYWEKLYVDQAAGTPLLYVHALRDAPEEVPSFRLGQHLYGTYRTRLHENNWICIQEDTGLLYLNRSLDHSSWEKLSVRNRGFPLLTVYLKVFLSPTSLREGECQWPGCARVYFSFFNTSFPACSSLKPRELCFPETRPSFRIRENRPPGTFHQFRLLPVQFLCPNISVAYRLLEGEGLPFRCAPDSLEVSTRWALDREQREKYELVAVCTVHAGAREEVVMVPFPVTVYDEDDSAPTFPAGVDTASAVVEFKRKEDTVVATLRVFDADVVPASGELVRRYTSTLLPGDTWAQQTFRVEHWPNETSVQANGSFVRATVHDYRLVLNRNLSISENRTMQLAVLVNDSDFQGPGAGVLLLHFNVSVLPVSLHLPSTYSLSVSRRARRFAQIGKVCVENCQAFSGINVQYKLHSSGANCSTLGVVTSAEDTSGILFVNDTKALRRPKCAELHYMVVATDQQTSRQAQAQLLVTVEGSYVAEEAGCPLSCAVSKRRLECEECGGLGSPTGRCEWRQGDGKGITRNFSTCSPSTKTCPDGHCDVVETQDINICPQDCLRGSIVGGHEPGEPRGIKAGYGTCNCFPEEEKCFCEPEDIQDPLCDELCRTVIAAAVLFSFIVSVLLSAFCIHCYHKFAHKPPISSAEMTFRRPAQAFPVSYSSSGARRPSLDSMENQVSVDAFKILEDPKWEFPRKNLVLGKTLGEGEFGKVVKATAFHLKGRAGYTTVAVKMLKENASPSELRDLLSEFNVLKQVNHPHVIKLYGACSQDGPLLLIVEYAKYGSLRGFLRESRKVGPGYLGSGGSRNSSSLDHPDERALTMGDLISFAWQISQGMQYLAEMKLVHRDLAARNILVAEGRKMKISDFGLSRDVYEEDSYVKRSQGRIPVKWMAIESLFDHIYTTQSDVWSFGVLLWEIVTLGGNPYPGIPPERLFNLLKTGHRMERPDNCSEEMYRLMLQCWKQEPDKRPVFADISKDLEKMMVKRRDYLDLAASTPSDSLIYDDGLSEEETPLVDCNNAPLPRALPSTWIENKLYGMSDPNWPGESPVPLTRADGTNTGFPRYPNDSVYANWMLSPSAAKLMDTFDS
Procedure: With the caged compound in hand, the ability to photocontrol the inhibition of RET kinase was assessed. For this purpose, an in vitro assay with purified RET kinase was used to measure ADP production during substrate phosphorylation. Compound 6 was added to two parallel preparations comprising RET kinase and substrate. One preparation was exposed to light (365 nm, 15 min), while the other was kept in the dark.
After adding ATP and incubating at room temperature for 30 min, the relative ATP turnover was assessed. […] For example; irradiating an administered dose of 1.6 μM 6, would modulate the RET kinase activity from 90% to 10%.
Human recombinant RET expressed in Sf9 insect cells (Specific Activity: 220 nmol^−1min^−1mg^−1), substrate (IGFlRtide), and ATP were purchased in an assay ready kit from Promega[37] (Promega Corporation, Madison WI 53711 USA) and used as received. Incubations were performed in 40 mM Tris buffer (pH 7.4, 1 vol% DMSO) supplemented with 50 μM DTT and 20 mM MgCl2 in a white flat-bottom 96-well plate. Incubation volume was 25 μL. Brief procedure; Kinase (0.8 μg/mL), substrate (40 μg/mL), ATP (10 μM) and inhibitor were combined and incubated for 30 min at room temperature in the dark, with shaking. After the kinase reaction, two detection reagents were added in a stepwise manner. The first reagent depleted the remaining (unreacted) ATP in the reaction mix. The second reagent converted the ADP produced in the kinase reaction to ATP and generated a luminescence signal using a luciferase/luciferin reaction. The light generated is proportional to the amount ADP present and, consequently, to the kinase activity. Luminescence was recorded on a BMG Labtech Fluostar Omega luminometer. All incubations were done in duplicates.
2. Fitting of dose-response data
Positive and negative control experiments with and without light exposure (15 min, 365 nm) were run in parallel to the inhibitor incubations. The positive control was identical to the inhibitor experiment but with buffer additions instead of ATP and Neurturin for the cell-free and live-cell incubation, respectively. The negative control was identical to the inhibitor experiment but with inhibitor diluent (DMSO) addition instead of inhibitor. The intensity reading from the positive control was subtracted from the corresponding value from the inhibitor incubation. This was followed by normalization to the negative control reading. The resulting luminescence intensities (I) at the applied inhibitor concentrations (C) were fitted to […]
A global, error-weighted (instrumental) fit was performed by making the top- (A2) and bottom (A1) asymptotes shared parameters for the included data sets. […]
140/2013, and followed the guidelines of the Swedish National Board for Laboratory

8505C cells = system: 8505C cells; design: method as in PMID 25409876; conditions: cited from earlier work
RET = system: RET; design: method as in PMID 22559926; conditions: cited from earlier work
[2] = system: cell lines used (TPC1, 8505C, C643, MCF7); design: method as in PMID 25409876; conditions: any of the cell lines used; cited from earlier work
RET kinase (c-RET-GFRα2) = RET kinase (c-RET-GFRα2) (Homo sapiens, UniProt P07949); experiment: PathHunter express c-RET-GFRα2 functional live-cell assay (neurturin stimulated); assay type: cell-based
Sequence of RET kinase (c-RET-GFRα2) (P07949 29-1114): as above
Procedure: The photoactivation of 6 was also tested in a RET functional whole cell assay which utilizes β-galactosidase to produce a luminescent readout[24][25][26] (see Methods section for assay details). Compound 6 was added to live cells expressing RET kinase in two identical preparations, followed by 3 h preincubation at 37 °C. At this point, one preparation was exposed to light (365 nm, 15 min), while the other was kept in the dark. Again, 15 min is clearly not sufficient to complete the decaging (see above). Addition of the growth factor neurturin (required to activate the RET kinase) and incubation for 3 h at 22 °C allowed for activity-correlating signal induction using the supplemented detection reagents. […] To again exclude distortive effects of light on the cells, incubations without inhibitor were exposed to light.
PathHunter express c-RET-GFRα2 functional assay and recombinant human neurturin were purchased from DiscoveRx (DiscoveRx Corporation, Fremont CA 94538 USA) and used according to instructions. […] Incubations were performed in the provided assay buffer (1 vol% DMSO) in a white flat/clear-bottom 96-well plate. Incubation volume was 110 μL. Brief procedure; Cells were thawed and diluted to ca. 100 000 cells/mL, followed by plating and acclimatization in 37 °C, 5% CO2, humidified, environment for 48 h. Thereafter, the inhibitor was added and the plate was returned to 37 °C for 3 h. The cells were then stimulated with the GDNF-family growth factor neurturin (applied concentration: 15 ng/mL = EC80) and incubated 3 h at 22 °C in the dark. An activity-correlating luminescence signal was induced using the detection reagent provided in the kit according to the recommended protocol. Luminescence was recorded on a BMG Labtech Fluostar Omega luminometer. All incubations were done in duplicates.

C643 cells = system: C643 cells; design: method as in PMID 25409876; conditions: cited from earlier work
[3] = system: RET/PTC1 expressing TPC1 cells; design: method as in PMID 25409876; conditions: cited from earlier work
[4] = system: GDNF-induced RET phosphorylation of ERK1/2; design: method as in PMID 22559926; conditions: cited from earlier work
[5] = Solubility in aqueous media / buffer; assay type: physicochemical
[6] = Thermal stability in aqueous buffer by UV/vis absorption; assay type: physicochemical; conditions: 48 h, 37 °C, 10 mM phosphate buffer pH 7.0, 1 vol% DMSO
Procedure: (§1) Steady state absorption measurements (for thermal stability assessment of 6, see Fig. S3) were carried out on a Cary Bio 50 UV/vis spectrometer equipped with a Varian PCB 1500 Water Peltier System thermostat for temperature control. Sample volume was 3.0 mL. […] Irradiation in the assays was accomplished by placing the lamp directly on top of the sample plates/dishes. It should be noted that the exact light conditions in the assays may differ slightly depending on the type of plates/dishes used (see Methods sections below for plate specifications).
5.3 Thermal stability of 6 in 10 mM phosphate buffer, pH 7.
Figure S3. UV/vis absorption spectra of 6 in 10 mM phosphate buffer (pH 7.0, 1 vol% DMSO) at
t = 0 (solid black line), and after t = 48 h in 37 °C (dashed red line). Inset: Absorption at λ = 321 nm as
(§2) (1 picture or pasted object on this page, not shown here)

[7] = Light-induced decaging (365 nm) monitored by HPLC; assay type: physicochemical
Procedure: Indeed, this compound was soluble in aqueous buffer (1 vol% DMSO) up to 100 μM. Photoinduced cleavage of 6 was readily achieved with 365 nm light, as monitored by HPLC.
as §1
Figure S1. Light-induced decaging of 6. A Tris buffer solution (1vol% DMSO) containing 100 µM 6 was successively subjected to t = 0, 3, 6, 9, 12, 15, 30, 60, and 90 min of 365 nm light. After each irradiation period, an aliquot was drawn and analyzed using HPLC with UV detection. The integrated areas for the chromatogram peaks associated with 1 (hollow squares) and 6 (solid circles) were fitted globally (shared time constant) to a first order exponential (solid line), yielding a time constant of τ = 9.6 min for the decaging of 6. It should be noted that the individually extracted time constants for […]
from the globally fitted value.
as §2

[8] = 100 µM 6 in Tris buffer 1 vol% DMSO

IC50 (Human recombinant RET; free inhibitor, no irradiation, 10 μM ATP, 30 min room temperature): 0.072 µM
IC50 (RET kinase (c-RET-GFRα2); free inhibitor, no irradiation, 3 h preincubation 37 °C): 0.47 µM
Structure (SMILES): CC(C)n1nc(C#Cc2ccccc2)c2c(N)ncnc21 [compound 1]
motoneuron axonal phenotype ([1]; 10 μM during development): phenotype was also observed
motoneuron axonal phenotype ([1]; 50 μM for 90 min at 6 hpf): phenotype was also observed
PI3K/Akt and MAPK signalling and estrogen receptor α (ERα) phosphorylation (MCF7 cells): inhibited
proliferation (MCF7 cells): inhibit proliferation to a similar degree as tamoxifen
MAPK signalling and proliferation (8505C cells): not
in vitro activity against RET (RET): low nM range
selectivity profile toward RET (RET): partial inhibition of only six other tyrosine kinases
cytotoxicity [2]: No cytotoxicity was observed
MAPK signalling and proliferation (C643 cells): not
MAPK signalling and proliferation [3]: inhibited
effect on GDNF-induced RET phosphorylation of ERK1/2 [4]: inhibitory effect

solubility in aqueous media [5]: insufficiently soluble
Structure (SMILES): COc1cc(COC(=O)Nc2ncnc3c2c(C#Cc2ccccc2)nn3C(C)C)c([N+](=O)[O-])cc1OC [compound 2]

Structure (SMILES): COc1cc(COC(=O)Nc2ncnc3c2c(C#Cc2ccccc2)nn3CCO)c([N+](=O)[O-])cc1OC [compound 3]
solubility in aqueous media [5]: too low to be practical for biological assays

RET kinase activity (Human recombinant RET; after irradiation): 10%
RET kinase activity (Human recombinant RET; before irradiation): 90%
increase of inhibitory capability upon light exposure (Human recombinant RET; irradiated (365 nm, 15 min) vs non-irradiated): 12 fold
IC50 (Human recombinant RET; non-irradiated (kept in the dark)): 6.8 µM
IC50 (RET kinase (c-RET-GFRα2); irradiated (365 nm, 15 min)): 8.7 µM
IC50, live-cell RET activity (RET kinase (c-RET-GFRα2); non-irradiated): no IC50 value could be obtained
partial inhibition of RET activity in live cells (RET kinase (c-RET-GFRα2); non-irradiated, at concentrations higher than 6 μM): ca. 40%
solubility ([5]; kinetic from dmso stock, aqueous buffer, 1 vol% DMSO): ≤ 100 µM
Structure (SMILES): COc1cc(COC(=O)Nc2ncnc3c2c(C#Cc2ccccc2)nn3C(C)C)c([N+](=O)[O-])cc1OCC(=O)O [compound 6, 2-(4-((((1-isopropyl-3-(phenylethynyl)-1H-pyrazolo[3,4-d]pyrimidin-4-yl)carbamoyl)oxy)methyl)-2-methoxy-5-nitrophenoxy)acetic acid]
motoneuron axonal phenotype ([1]; 10 μM, irradiated 15 min at 14 hpf): virtually no effect
motoneuron axonal phenotype ([1]; 50 μM from 3 hpf for 11 h, irradiated 15 min 365 nm at 14 hpf, imaged 2 dpf): motoneurons with shortened and malformed axons
motoneuron axonal phenotype ([1]; irradiated at 24 hpf after 10 h of incubation and wash): similar, but less severe, axonal phenotypes
motoneuron axonal phenotype ([1]; non-irradiated embryos (50 μM)): did not show any phenotypic anomalies
thermal stability (absorption spectrum) [6]: no changes in the absorption spectrum were detected; also recorded: No signs of degradation
exposure time required for complete (>99%) decaging [7]: at least 45 minutes
time constant τ, consumption of 6 (individual fit) [7, 8]: 8.7 min
time constant τ, liberation of 1 (individual fit) [7, 8]: 13.1 min
time constant τ of decaging, global fit (first order) ([7]; 1.5 mW/cm^2, 100 µM in Tris buffer 1 vol% DMSO): 9.6 min
